Reference: patent US20220249617A1, “CYCLODEXTRIN BASED INJECTABLE COFORMULATIONS OF SGLT2 INHIBITORS AND INCRETIN PEPTIDES” (MEDIMMUNE LIMITED, priority 2019, published 2022)
Values after ≈ are worked out from the molar mass of the structure shown. Blank lines part the entries; values can stand above or below the compound they belong to.

Assays:
[1] = Pharmacokinetic study after subcutaneous injection in rats; type: in vivo; settings: DPZ 0.5 mg/kg
Protocol: For the PK study, MEDI0382 alone in buffer was prepared at 0.5 mg/mL in 50 mM Na Phosphate buffer pH 7.8+1.85% propylene glycol (PG) (J. T. Baker).
The cyclodextrin vehicle used for the PK study was 7% w/v HPβCD in 50 mM Na Phosphate buffer pH 7.8+0.5% v PG. The PG was added to adjust the osmolarity of the formulations to 260 mOsm. […] In parallel, MEDT0382 alone in buffer was prepared at 0.5 mg/mL in 50 mM NaP buffer pH 7.8+1.85% v/v PG. The formulations were then diluted to 1/10 with their corresponding vehicle.
Three animals per group were included, and serial blood sampling for PK evaluation occurred at 0.5, 1, 2, 4, 7, and 24 hr post dose.

physchem = test: physchem
Protocol: Various HPβCD (Kleptose HPB, Roquette) solutions at increasing concentrations were prepared in water ranging from 5% to 20% (w/v). Briefly, HPβCD was weighed in a volumetric flask and purified water was added up to 80% (v/v) of final volume. The flask was mixed until full solubilisation and made up to final volume with purified water. […] Each concentration was done in duplicate. The formulations were left under magnetic stirring for 21 h 40 min. Each sample was then transferred to a 1.5 mL eppendorf and centrifuged at 13,000 rpm for 10 min. Then 200 μL was taken from the supernatant and centrifuged again in a 1.5 mL eppendorf for 30 min at 13,000 rpm. The samples were finally diluted in buffer A (95% HPLC water/5% ACN+0.03% TFA), and the concentration was measured by UPLC against a calibration curve validated with quality controls.

[2] = target 17 mg/mL DPZ; formulation containing cyclodextrin (HPβCD); visual observation
Protocol: The appropriate aqueous vehicle was added onto the powder to achieve a final concentration of 17 mg/mL, vortex mixed, and sonicated. The pass/fail criteria for the formulation was determined through visual observation.
The screening assay was therefore designed to target a concentration of 17 mg/mL, corresponding to a […] dose in 600 μL dose volume. […] The excipients screened included PEG 400, PG, DSPE-PEG 2000, Glycerol, Kolliphor 188, HPβCD, and BSA. […] Only the formulation containing cyclodextrin was successful and therefore taken forward for further evaluation as a potential co-formulation vehicle.

[3] = oral administration; cited from earlier work
DIO mice = settings: repeat injections; cited from earlier work
[4] = system: overweight and obese patients with type 2 diabetes; settings: cited from earlier work
[5] = target: T1, human recombinant glucagon receptor (Homo sapiens, UniProt P47871); test: In vitro potency assay, cAMP response element luciferase reporter in CHO cells; type: cell-based; settings: MEDI0382 in buffer, in cyclodextrin, and co-formulated with DPZ
T1 construct: expressed in transfected cells; host or cells: CHO-K1
Protocol: (§1) Briefly, cells were plated at 20,000 cells per well in 96-well white microtiter plates (Corning, USA) and incubated with serially diluted peptide samples for 4 hours prior to lysis and measurement of cAMP dependent luciferase activity using Steady-Glo luciferase substrate (Promega, USA). Plates were read on a SpectraMax Paradigm plate reader (Molecular Devices, USA), and 10-point concentration-response curves were generated in triplicate. Results were expressed as the relative potency of the test sample compared to a reference ligand by calculating the ratio of the reference and sample EC50 values from a 4-PL fit following a test for parallelism using SoftMax Pro software (Molecular Devices, USA), and the reported data was the mean of two independent assays. Curves were fitted using nonlinear regression analysis in GraphPad Prism software 6.03 (GraphPad, USA).
(§2) Although HPβCD enhances the physical stability of the peptide, the loss of alpha-helix could have a dramatic impact on the potency of the peptide. […] The in vitro potency was assessed on CHO cells over-expressing human recombinant GLP-1 or glucagon receptors, and the activity was reported as EC50 values after measurement of cAMP accumulation.

[6] = target: T2, human recombinant GLP-1 receptor (Homo sapiens, UniProt P43220); test: as above; type: cell-based; settings: MEDI0382 in buffer, in cyclodextrin, and co-formulated with DPZ
T2 construct: expressed in transfected cells; host or cells: CHO-K1
Protocol: as §1, §2

non-human primates = settings: repeat injections; cited from earlier work
[7] = cited from earlier work

T2 sequence (P43220 24-463): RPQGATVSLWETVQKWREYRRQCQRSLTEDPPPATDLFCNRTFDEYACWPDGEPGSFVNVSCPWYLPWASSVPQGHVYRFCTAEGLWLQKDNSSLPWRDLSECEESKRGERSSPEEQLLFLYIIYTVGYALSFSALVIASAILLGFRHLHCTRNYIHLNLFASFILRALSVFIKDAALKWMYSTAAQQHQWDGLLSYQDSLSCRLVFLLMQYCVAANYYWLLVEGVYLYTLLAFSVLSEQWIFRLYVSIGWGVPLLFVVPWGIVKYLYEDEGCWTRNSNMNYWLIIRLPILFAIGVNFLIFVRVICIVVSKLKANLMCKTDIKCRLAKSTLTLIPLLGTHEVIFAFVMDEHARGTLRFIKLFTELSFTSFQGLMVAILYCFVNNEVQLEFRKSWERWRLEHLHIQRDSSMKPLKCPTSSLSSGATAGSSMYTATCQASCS
T1 sequence (P47871 26-477): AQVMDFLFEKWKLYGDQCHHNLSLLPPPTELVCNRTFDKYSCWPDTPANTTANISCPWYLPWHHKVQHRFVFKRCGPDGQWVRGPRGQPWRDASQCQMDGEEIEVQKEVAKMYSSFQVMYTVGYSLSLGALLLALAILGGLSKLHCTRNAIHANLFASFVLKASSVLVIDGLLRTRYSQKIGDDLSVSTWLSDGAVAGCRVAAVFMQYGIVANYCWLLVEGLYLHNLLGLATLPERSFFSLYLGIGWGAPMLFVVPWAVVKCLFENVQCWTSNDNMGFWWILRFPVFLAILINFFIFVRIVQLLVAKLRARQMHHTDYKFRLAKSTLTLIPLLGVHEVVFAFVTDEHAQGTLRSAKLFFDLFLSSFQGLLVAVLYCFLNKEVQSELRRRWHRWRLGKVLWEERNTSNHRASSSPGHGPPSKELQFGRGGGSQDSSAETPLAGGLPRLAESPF

- PK of DPZ in the presence of MEDI0382 [1]: unchanged
- amount of HPβCD required to increase the solubility up to 17 mg/mL (physchem): 5.5 % (w/v)
- solubility change with increasing HPβCD concentration (physchem): linearly increased
- stoichiometry of inclusion complex (phase solubility) (physchem): 1:1
- solubility at 21.67 h (physchem; water, thermodynamic from solid): 1600 µg/mL (≈ 3.91 mM)
- Solubility screen result (pass/fail) [2]: successful
Compound: CCOc1ccc(Cc2cc([C@@H]3O[C@H](CO)[C@@H](O)[C@H](O)[C@H]3O)ccc2Cl)cc1 [DPZ, dapagliflozin]
- absolute bioavailability [3]: 78%

- solubility change with increasing HPβCD concentration (physchem): linear solubility increase
Compound: OC[C@H]1O[C@@H](c2ccc(Cl)c(Cc3ccc(O[C@H]4CCOC4)cc3)c2)[C@H](O)[C@@H](O)[C@@H]1O [EPZ, empagliflozin]

- EC50 (cAMP accumulation), change between formulations [5]: no change of EC50
- EC50 (cAMP accumulation), change between formulations [6]: no change of EC50
Compound: CCCCCCCCCCCCCCCC(=O)N[C@@H](CCC(=O)NCCCC[C@H](NC(=O)[C@H](CC(=O)O)NC(=O)[C@H](CO)NC(=O)[C@@H](NC(=O)[C@H](Cc1ccccc1)NC(=O)[C@@H](NC(=O)CNC(=O)[C@H](CCC(N)=O)NC(=O)[C@H](CO)NC(=O)[C@@H](N)Cc1c[nH]cn1)[C@@H](C)O)[C@@H](C)O)C(=O)N[C@@H](CO)C(=O)N[C@@H](CCC(=O)O)C(=O)N[C@@H](Cc1ccc(O)cc1)C(=O)N[C@@H](CC(C)C)C(=O)N[C@@H](CC(=O)O)C(=O)N[C@@H](CO)C(=O)N[C@@H](CCC(=O)O)C(=O)N[C@@H](CCCNC(=N)N)C(=O)N[C@@H](C)C(=O)N[C@@H](CCCNC(=N)N)C(=O)N[C@@H](CC(=O)O)C(=O)N[C@@H](Cc1ccccc1)C(=O)N[C@H](C(=O)N[C@@H](C)C(=O)N[C@@H](Cc1c[nH]c2ccccc12)C(=O)N[C@@H](CC(C)C)C(=O)N[C@@H](CCC(=O)O)C(=O)N[C@@H](C)C(=O)NCC(=O)NCC(=O)O)C(C)C)C(=O)O [MEDI0382]
- effect on weight and glucose (DIO mice): marked weight loss and robust glucose control
- clinical efficacy [4]: glucose, weight and liver fat lowering efficacy
- effect on weight and glucose (non-human primates): marked weight loss and robust glucose control

Compound: glucagon
- pKa of N-terminal His alpha-amino group [7]: 7.6
- pKa of N-terminal His imidazole group [7]: 7.4
